Measured values as given in the NIST ThermoML archive (doi:10.1016/j.jct.2015.10.013).
Where “and” joins values, the source holds several entries; their conditions need not be identical. Equal values may be shown once. Numbers after ± are expanded uncertainties.

How the values were obtained:
[1] = Crystal, Calculated from knudsen effusion weight loss
[2] = molar enthalpy of vaporization or sublimation; details: 298.15 K; Crystal; Static calorimetry

For `CN1c2ccccc2Sc2ccccc21` [10-methylphenothiazine], the “vapor or sublimation pressure” value ([1]; 337.16 K) was 9.9e-05 ± 6e-05 kPa and 9.8e-05 ± 6e-05 kPa and 9.7e-05 ± 6e-05 kPa, the “vapor or sublimation pressure” value ([1]; 339.27 K) was 0.000127 ± 6e-05 kPa and 0.000128 ± 6e-05 kPa and 0.000124 ± 6e-05 kPa and the “vapor or sublimation pressure” value ([1]; 341.16 K) was 0.000156 ± 6e-05 kPa and 0.000152 ± 6e-05 kPa. The “vapor or sublimation pressure” value ([1]; 343.16 K) was 0.000187 ± 6e-05 kPa and 0.000186 ± 6e-05 kPa and 0.000188 ± 6e-05 kPa, the “vapor or sublimation pressure” value ([1]; 345.25 K) was 0.000242 ± 6.1e-05 kPa and 0.000237 ± 6.1e-05 kPa and 0.000246 ± 6.1e-05 kPa and the “vapor or sublimation pressure” value ([1]; 347.15 K) was 0.000294 ± 6.1e-05 kPa and 0.000295 ± 6.1e-05 kPa and 0.000286 ± 6.1e-05 kPa. For the same compound, the “vapor or sublimation pressure” value ([1]; 349.16 K) was 0.000354 ± 6.1e-05 kPa and 0.000353 ± 6.1e-05 kPa and 0.000361 ± 6.1e-05 kPa, the “vapor or sublimation pressure” value ([1]; 351.26 K) was 0.000456 ± 6.2e-05 kPa and 0.000445 ± 6.2e-05 kPa and 0.00046 ± 6.2e-05 kPa and the “vapor or sublimation pressure” value ([1]; 353.16 K) was 0.000551 ± 6.3e-05 kPa and 0.000553 ± 6.3e-05 kPa and 0.000539 ± 6.3e-05 kPa. The “vapor or sublimation pressure” value ([1]; 355.16 K) was 0.000655 ± 6.4e-05 kPa and 0.000671 ± 6.5e-05 kPa, the “vapor or sublimation pressure” value ([1]; 357.26 K) was 0.000853 ± 6.7e-05 kPa and 0.00084 ± 6.7e-05 kPa and 0.000822 ± 6.7e-05 kPa and the “vapor or sublimation pressure” value ([1]; 359.15 K) was 0.001002 ± 9.3e-05 kPa and 0.001018 ± 9.4e-05 kPa and 0.00102 ± 9.4e-05 kPa. The molar enthalpy [2] was 24.8 ± 0.55 kcal/mol.
